Results reported in patent US10981932B2, “Macrocyclic indole derivatives” (Bayer Aktiengesellschaft, priority 2016, dated 2021).
Where a name gives a salt, the structure may show the parent alone. Read-outs that look alike come from different tables or passages of the source.

How the values were obtained:
MCL-1 = MCL-1 (Homo sapiens, UniProt Q07820); assay: Protein-protein interaction assay MCL-1/Noxa BH3 peptide (MCL-1 assay), TR-FRET; type: binding; conditions: MBP-MCL-1 / Noxa BH3-derived peptide, median
Chain of MCL-1 (Q07820 whole entry): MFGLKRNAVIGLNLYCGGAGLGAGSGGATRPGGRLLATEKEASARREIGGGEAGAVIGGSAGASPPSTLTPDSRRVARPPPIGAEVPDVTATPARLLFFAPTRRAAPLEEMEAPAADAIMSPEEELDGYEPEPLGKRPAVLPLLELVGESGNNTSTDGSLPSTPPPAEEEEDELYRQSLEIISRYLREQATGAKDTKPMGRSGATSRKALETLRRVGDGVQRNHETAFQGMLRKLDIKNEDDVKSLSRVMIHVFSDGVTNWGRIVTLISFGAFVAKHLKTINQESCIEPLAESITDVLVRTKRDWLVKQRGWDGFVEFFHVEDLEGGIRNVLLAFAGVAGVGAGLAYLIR
Summary of the method: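 Steady-state competition, MCL-1/Noxa BH3, TR-FRET readout; 1 nM MBP-MCL-1, 11-point dose series 0.1 nM–20 μM; overnight 4 °C equilibration; 4-parameter IC50.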

SUDHL5 [1] = assay: Induction of caspase-3/7 activity (Caspase-Glo 3/7), SUDHL5; type: cell-based; conditions: caspase-3/7 induction, SUDHL5 cells, 3 h treatment, median
Summary of the method: (§1)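 A 3 h, 37 °C compound incubation precedes the Caspase-Glo 3/7 read. After subtracting medium-only signal, EC50s are fitted against the reference compound's maximal caspase induction.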

SUDHL10 [2] = assay: Induction of caspase-3/7 activity (Caspase-Glo 3/7), SUDHL10; type: cell-based; conditions: caspase-3/7 induction, SUDHL10 cells, 3 h treatment, median
Summary of the method: as §1

SUDHL5 [3] = assay: Anti-proliferative effect (CellTiter-Glo, 72 h), SUDHL5; type: cell-based; conditions: SUDHL5 cells, antiproliferation, median, read-out: Antiproli SUDHL5 [M] (median)
Summary of the method: (§2)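 Plate cells alongside a separate day 0 reference plate. Read the reference plate at once with CellTiter-Glo. Incubate treated cells 72 h at 37 °C, then read them the same way by luminescence.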

A2780 = assay: Anti-proliferative effect (CellTiter-Glo, 72 h), A2780; type: cell-based; conditions: A2780 cells, median, read-out: IC50 antiproliferation assay A2780 [M] (median)
Summary of the method: as §2

MV-4-11 = assay: Anti-proliferative effect (CellTiter-Glo, 72 h), MV-4-11; type: cell-based; conditions: MV-4-11 cells, median, read-out: IC50 antiproliferation assay MV-4-11 [M] (median)
Description: Assessment of the Anti-Proliferative Effect of Compounds in Different Cell Lines
The impact of compounds on the proliferation of different cell lines was assessed using the CellTiter-Glo® Luminescent Cell Viability reagent from Promega (G7573). Of note, SUDHL10 and SUDHL5 (DLBCL), NCI-H929 (Multiple Myeloma), A2780 (ovarian carcinoma) as well as MV-4-11(AML) cells are sensitive to MCL-1 inhibition.
In parallel, cells were plated in a reference (day 0) plate for time zero determination.
Rim wells were excluded. The cells were incubated for 72 h hours in a humidified incubator at 37° C. The day 0 plate was measured by adding 30 μl/well of CTG solution (CellTiter-Glo® Luminescent Cell Viability reagent, Promega G7573) to time zero wells in the reference plate followed by a 10 minutes incubation and luminescence reading at 0.1 ms, using the PHERAstar FS microplate reader (BMG Labtech).
After 72 h incubation, the treated plates were measured in the same way as the day 0 plate mentioned above.

SUDHL5 [4] = assay: Induction of cytotoxicity (CellTiter-Glo, 5 h), SUDHL5
Description: Therefore, cytotoxicity assays were run in parallel in SUDHL5 and SUDHL10 cells.
The different cell lines were plated in culture medium (RPMI 1640 [GIBCO #22400-089]supplemented with 10% Fetal Bovine Serum) at a density of 3.300 cells in 30 μl/well in a sterile, solid black, flat bottom, polystyrene, TC-treated 384-well microplate (Corning #3571) using Multidrop Combi Reagent Dispenser. As a control, medium without cells was also added to the plate. Cells were incubated in a humidified incubator at 37° C. overnight. On the next day, the cells were treated with compounds (stock solution, 10 mM in DMSO) using the HP D300 Digital Dispenser in a concentration range of 3.3×10e-5 M (33 μM) to 5×10e-9 M (5 nM) in a single-dot curve with at least 16 dilutions and a DMSO concentration of 0.33%. Rim wells were excluded. The cells were incubated for 5 h hours in a humidified incubator at 37° C. After this incubation, 30 μl of CellTiter-Glo@ Luminescent Cell Viability reagent (Promega, G7573) was added to each well using the Multidrop Combi Reagent Dispenser, followed by 15 min incubation on a shaker at room temperature. Finally, luminescence was read at 0.1 ms, with a gain of 3000 using the PHERAstar FS microplate reader (BMG Labtech).
The Bella DRC Master Sheet was used to calculate IC50s, with fixed CI=0 and C0=1.

SUDHL10 [5] = assay: Induction of cytotoxicity (CellTiter-Glo, 5 h), SUDHL10
[6] = Homo sapiens, SU-DHL-5, 72 h, 72 h
[7] = read-out: Cytotox SUDHL5 [M] (median), SUDHL5 cells, cytotoxicity induction, CellTiter-Glo, 5 h, median
[8] = Homo sapiens, SU-DHL10, 5 h, read-out: Cytotox SUDHL10 [M] (median), SUDHL10 cells, cytotoxicity induction, CellTiter-Glo, 5 h, median
[9] = read-out: Cytotox SUDHL5 [M] (median), SUDHL5 cells, cytotoxicity induction, CellTiter-Glo, 5 h incubation, median
[10] = read-out: Cytotox SUDHL10 [M] (median), SUDHL10 cells, cytotoxicity induction, CellTiter-Glo, 5 h incubation, median
[11] = Homo sapiens, SU-DHL-5, 5 h, read-out: Cytotox SUDHL5 [M] (median), SUDHL5 cells, cytotoxicity induction, CellTiter-Glo, 5 h, median
[12] = Homo sapiens, SU-DHL-5, 72 h, 72 h incubation
[13] = Homo sapiens, SU-DHL10, 5 h, read-out: Cytotox SUDHL10 [M] (median), SUDHL10 cells, cytotoxicity induction, CellTiter-Glo, 5 h incubation, median

Row | Structure (SMILES) | IC50 (MCL-1) | EC50 (SUDHL5 [1]) | EC50 (SUDHL10 [2]; Homo sapiens, SU-DHL10, 3 h) | IC50 (SUDHL5 [3]; [6]) | IC50 (A2780; Homo sapiens, A2780, 72 h) | IC50 (MV-4-11; Homo sapiens, MV4-11, 72 h) | EC50 (SUDHL10 [2]) | IC50 (SUDHL5 [3]; 72 h incubation) | IC50 (A2780) | IC50 (MV-4-11) | EC50 (SUDHL5 [1]; Homo sapiens, SU-DHL-5, 3 h) | IC50 (SUDHL5 [3]; 72 h) | IC50 (SUDHL5 [3]; [12]) | IC50 (SUDHL5 [4]; [7]) | IC50 (SUDHL10 [5]; [8]) | IC50 (SUDHL5 [4]; [9]) | IC50 (SUDHL10 [5]; [10]) | IC50 (SUDHL5 [4]; [11]) | IC50 (SUDHL10 [5]; [13]) | IC50 (SUDHL10 [5]; read-out: Cytotox SUDHL10 [M] (median), SUDHL10 cells, cytotoxicity induction, CellTiter-Glo, 5 h, median)
1 | Cc1c2c(nn1C)COCCCCn1c(C(=O)O)c(CCCOc3cccc4cc(Cl)ccc34)c3cccc-2c31 (single isomer, unassigned) [Example 296, (+)-7-{3-[(6-chloronaphthalen-1-yl)oxy]propyl}-2,3-dimethyl-2,10,11,12,13,15-hexahydropyrazolo[4′,3′:9,10][1,6]Oxazacycloundecino[8,7,6-hi]indole-8-carboxylic acid-N-ethylethanamine Salt] | 3.31 nM | 3.23 µM | 18.7 µM | 5.2e-06 M | 2.07e-05 M | 1.52e-05 M | – | – | – | – | – | – | – | 5.31e-06 M | 1.43e-05 M | – | – | – | – | –
2 | Cn1nc(CC(F)(F)F)c2c1COCCCCn1c(C(=O)O)c(CCCOc3cccc4ccccc34)c3cccc-2c31 (single isomer, unassigned) [Example 220, 1-methyl-7-[3-(naphthalen-1-yloxy)propyl]-3-(2,2,2-trifluoroethyl)-1,10,11,12,13,15-hexahydropyrazo[4′,3′:9,10][1,6]oxazacycloundecino[8,7,6-hi]indole-8-carboxylic acid-N-ethylethanamine Salt] | 3.23 nM | 10.1 µM | 22.4 µM | – | > 3.3e-05 M | 2.27e-05 M | > 33 µM | – | – | – | – | – | 1.05e-05 M | – | – | 9.69e-06 M | – | – | > 3.3e-05 M | –
3 | Cc1ccc2c(CCCOc3cccc4cc(F)ccc34)c(C(=O)O)n3c2c1-c1c(nn(CCN2CCOCC2)c1C)COCCCC3 (single isomer, unassigned) [Example 294, (−)-7-{3-[(6-fluoronaphthalen-1-yl)oxy]propyl}-3,4-dimethyl-2-[2-(morpholin-4-yl)ethyl]-2,10,11,12,13,15-hexahydropyrazolo[4′,3′:9,10][1,6]oxazacycloundecino[8,7,6-hi]indole-8-carboxylic acid-N-ethylethanamine Salt] | 5.79 nM | 6.95 µM | – | – | – | – | 10.8 µM | – | 1.88e-05 M | 1.53e-05 M | – | 5.96e-06 M | – | 5.95e-06 M | – | – | – | – | – | 1.08e-05 M
4 | Cc1ccc2c(C(C)CCOc3cccc4cc(F)ccc34)c(C(=O)O)n3c2c1-c1c(nn(C)c1C)COCCCC3 (single isomer, unassigned) [Example 279, 7-{4-[(6-fluoronaphthalen-1-yl)oxy]butan-2-yl}-2,3,4-trimethyl-2,10,11,12,13,15-hexahydropyrazolo[4′,3′:9,10][1,6]oxazacycloundecino[8,7,6-hi]indole-8-carboxylic Acid] | 1600 nM | 25.5 µM | – | – | – | – | 26.6 µM | 7.56e-06 M | 7.5e-06 M | 1.57e-05 M | – | – | – | – | – | 2.05e-05 M | 2.94e-05 M | – | – | –

Continued by falling IC50 (MCL-1), values first:

Row | IC50 (MCL-1) | EC50 (SUDHL5 [1]) | EC50 (SUDHL10 [2]; Homo sapiens, SU-DHL10, 3 h) | IC50 (SUDHL5 [3]; [6]) | IC50 (A2780; Homo sapiens, A2780, 72 h) | IC50 (MV-4-11; Homo sapiens, MV4-11, 72 h) | EC50 (SUDHL10 [2]) | IC50 (SUDHL5 [3]; 72 h incubation) | IC50 (A2780) | IC50 (MV-4-11) | EC50 (SUDHL5 [1]; Homo sapiens, SU-DHL-5, 3 h) | IC50 (SUDHL5 [3]; 72 h) | IC50 (SUDHL5 [3]; [12]) | Structure (SMILES) | IC50 (SUDHL5 [4]; [7]) | IC50 (SUDHL10 [5]; [8]) | IC50 (SUDHL5 [4]; [9]) | IC50 (SUDHL10 [5]; [10]) | IC50 (SUDHL5 [4]; [11]) | IC50 (SUDHL10 [5]; [13]) | IC50 (SUDHL10 [5]; read-out: Cytotox SUDHL10 [M] (median), SUDHL10 cells, cytotoxicity induction, CellTiter-Glo, 5 h, median)
5 | 3970 nM | > 33 µM | – | – | – | – | 21.6 µM | 3.33e-06 M | 7.02e-06 M | 4.52e-06 M | – | – | – | CCc1nn(C)c2c1-c1c(C)ccc3c(C(C)CCOc4cccc5ccccc45)c(C(=O)O)n(c13)CCCCOC2 (single isomer, unassigned) [Example 275, 3-ethyl-1,4-dimethyl-7-[4-(naphthalen-1-yloxy)butan-2-yl]-1,10,11,12,13,15-hexahydropyrazolo[4′,3′:9,10][1,6]oxazacycloundecino[8,7,6-hi]indole-8-carboxylic Acid] | – | – | > 3.3e-05 M | 2.83e-05 M | – | – | –
6 | 559 nM | > 33 µM | – | – | – | – | > 33 µM | 1.71e-05 M | 2.52e-05 M | 3.05e-05 M | – | – | – | Cn1nc(C(F)(F)F)c2c1COCCCCn1c(C(=O)O)c(CCCOc3cccc4ccccc34)c3cccc-2c31 (single isomer, unassigned) [Example 218, 1-methyl-7-[3-(naphthalen-1-yloxy)propyl]-3-(trifluoromethyl)-1,10,11,12,13,15-hexahydropyrazolo[4′3′:9,10][1,6]oxazacycloundecino[8,7,6-hi]indole-8-carboxylic Acid] | – | – | 2.76e-05 M | > 3.3e-05 M | – | – | –
7 | 9.43 nM | > 33 µM | > 33 µM | 2.53e-05 M | > 3.3e-05 M | > 3.3e-05 M | – | – | – | – | 27.8 µM | > 3.3e-05 M | – | Cc1c2c(nn1C)CNCCCCn1c(C(=O)O)c(CCCOc3cccc4ccccc34)c3cccc-2c31 (racemic) [Example 356, (rac)-2,3-dimethyl-7-[3-(naphthalen-1-yloxy)propyl]-10,11,12,13,14,15-hexahydro-2H-pyrazolo[3′,4′:8,9][1,6]diazacycloundecino[10,11,1-hi]indole-8-carboxylic Acid] | – | > 3.3e-05 M | – | – | > 3.3e-05 M | – | –
8 | 2.89 nM | 5.25 µM | 19.1 µM | – | 2.15e-05 M | – | – | – | – | 8.15e-06 M | – | – | 1.13e-05 M | COCCn1nc(C2CC2)c2c1COCCCCn1c(C(=O)O)c(CCCOc3cccc4c3CCCC4)c3cccc-2c31 (single isomer, unassigned; enantiomer 1) [Example 165, 3-Cyclopropyl-1-(2-methoxyethyl)-7-[3-(5,6,7,8-tetrahydronaphthalen-1-yloxy)propyl]-1,10,11,12,13,15-hexahydropyrazolo[4′,3′:9,10][1,6]oxazacycloundecino[8,7,6-hi]indole-8-carboxylic acid-N-ethylethanamine Salt (Enantiomer 1)] | – | – | 5.71e-06 M | – | – | 2.37e-05 M | –
9 | 1.84 nM | – | 1.21 µM | 1.59e-06 M | 1.58e-05 M | 8.52e-06 M | – | – | – | – | 0.671 µM | – | – | Cc1ccc2c(CCCOc3cccc4cc(F)ccc34)c(C(=O)O)n3c2c1-c1c(nn(CCN2CCOCC2)c1C)COCCCC3 (racemic) [Example 292, (rac)-7-{3-[(6-fluoronaphthalen-1-yi)oxy]propyl}-3,4-dimethyl-2-[2-(morpholin-4-yl)ethyl]-2,10,11,12,13,15-hexahydropyrazolo[4′,3′:9,10][1,6]oxazacycloundecino[8,7,6-hi]indole-8-carboxylic Acid] | – | 1.52e-06 M | – | – | 1.13e-06 M | – | –
10 | 1.65 nM | 1.33 µM | – | – | – | – | 2.49 µM | 2e-06 M | 1.03e-05 M | 2.83e-06 M | – | – | – | CCc1c2c(nn1CCN1CCOCC1)COCCCCn1c(C(=O)O)c(CCCOc3cccc4ccccc34)c3ccc(C)c-2c31 (single isomer, unassigned; enantiomer 1) [Example 205, 3-ethyl-4-methyl-[2-(2-(morpholin-4-yl)ethyl]-7-[3-(naphthalen-1-yloxy)propyl]-2,10,11,12,13,15-hexahydropyrazolo[4′3′:9,10][1,6]oxazacycloundecino[8,7,6-hi]indole-8-carboxylic Acid (Enantiomer 1)] | – | – | 1.38e-06 M | 2.92e-06 M | – | – | –
